{
  "source": "patent US7960552B2",
  "about": "“Farnesoid X receptor agonists” (GlaxoSmithKline LLC, priority 2006, dated 2011)",
  "key": {"[1]": {"system": "high-fat diet fed obese mice", "assay": "Effects of FXR agonists on diet induced obese mice", "type": "in vivo, C57BL mice", "settings": "10, 30 and 100 mg/kg twice a day orally; for serum NEFA / serum cholesterol / serum glucose / serum glycerol / serum insulin / serum triglyceride: end of study; for body fat mass: four weeks of treatment, QMR", "protocol": "Methods: Male 20 to 25 g C57BL mice (Charles River, Indianapolis, Ind.) were housed at 72° F. and 50% relative humidity with a 12 h light and dark cycle and fed with standard rodent chow (Purina 5001, Harlan Teklad, Indianapolis, Ind.) or a high-fat diet (TD93075, Harlan Teklad, Indianapolis, Ind.) for eight weeks. After three weeks, mice on high-fat diet were randomized to vehicle or treatment groups based on fasting glucose and body weight. Starting from the fifth week, mice were given either vehicle or the compound in Example 1 (10, 30 and 100 mg/kg) or the compound in Example 5 (10, 30, 100 mg/kg) twice a day orally. Mice on the standard rodent chow were also given vehicle as a control. Body composition was measured using the quantitative magnetic resonance (QMR) method before and at the end of compound treatment. […] Serum chemistry levels were measured using the Instrumentation Laboratory Ilab600™ clinical chemistry analyzer (Instrumentation Laboratory, Boston, Mass.)."}, "[2]": {"system": "rodent models of hepatic fibrosis", "settings": "multiple rodent models; cited from earlier work"}, "[3]": {"system": "hepatic stellate cells (HSC)", "settings": "cultured HSCs; cited from earlier work"}, "[4]": {"system": "bile duct-ligated mouse model", "settings": "cited from earlier work"}, "[5]": {"system": "high-fat diet induced insulin resistant, glucose intolerant, and obese mouse model", "settings": "mice on high-fat diet, cited from earlier work"}, "db/db mice": {"system": "db/db mice", "settings": "oral 30 mg/kg, bid; cited from earlier work"}, "[6]": {"settings": "100 mg/kg twice a day orally, 100 mg/kg"}},
  "note": "“Also recorded” adds a separate entry of the source.",
  "data": [
    {"smiles": "CC(C)c1onc(-c2c(Cl)cccc2Cl)c1COc1ccc(-c2ccc3nc(C(=O)O)ccc3c2)cc1", "note": "[Example 1, 6-[4-({[3-(2,6-Dichlorophenyl)-5-(1-methylethyl)-4-isoxazolyl]methyl}oxy)phenyl]-2-quinolinecarboxylic Acid]", "values": [
      {"measurement": "serum NEFA", "setting": "[1]", "result": "decreased"},
      {"measurement": "serum cholesterol", "setting": "[1]", "result": "decreased"},
      {"measurement": "serum glucose", "setting": "[1]", "result": "decreased"},
      {"measurement": "serum glycerol", "setting": "[1]", "result": "decreased"},
      {"measurement": "serum insulin", "setting": "[1]", "result": "decreased"},
      {"measurement": "serum triglyceride", "setting": "[1]", "result": "decreased"},
      {"measurement": "body fat mass", "setting": "[1]", "result": "decreased"}
    ]},
    {"smiles": "CC(C)c1onc(-c2c(Cl)cccc2Cl)c1COc1ccc(-c2ccc3cc(C(=O)O)ncc3c2)cc1", "note": "[Example 5, 7-[4-({[3-(2,6-Dichlorophenyl)-5-(1-methylethyl) -4-isoxazolyl]methyl}oxy)phenyl]-3-isoquinolinecarboxylic acid]", "values": [
      {"measurement": "serum NEFA", "setting": "[1]", "result": "decreased"},
      {"measurement": "serum cholesterol", "setting": "[1]", "result": "decreased"},
      {"measurement": "serum glucose", "setting": "[1]", "result": "decreased"},
      {"measurement": "serum glycerol", "setting": "[1]", "result": "decreased"},
      {"measurement": "serum insulin", "setting": "[1]", "result": "decreased"},
      {"measurement": "serum triglyceride", "setting": "[1]", "result": "decreased"},
      {"measurement": "body fat mass", "setting": "[1]", "result": "decreased"}
    ]},
    {"smiles": "CC[C@H]1[C@@H](O)[C@@H]2[C@H](CC[C@]3(C)[C@@H]([C@H](C)CCC(=O)O)CC[C@@H]23)[C@@]2(C)CC[C@@H](O)C[C@@H]12", "note": "[Example 6EtCDCA, 6-ethyl-chenodeoxycholic acid]", "values": [
      {"measurement": "development of hepatic fibrosis", "setting": "[2]", "result": "prevent"},
      {"measurement": "resolution of hepatic fibrosis", "setting": "[2]", "result": "promote"},
      {"measurement": "expression of fibrotic marker α1(I)collagen", "setting": "[3]", "result": "decreased"},
      {"measurement": "expression of fibrotic marker α-smooth muscle actin", "setting": "[3]", "result": "decreased"}
    ]},
    {"smiles": "CC(C)c1onc(-c2c(Cl)cccc2Cl)c1COc1ccc(/C=C/c2cccc(C(=O)O)c2)c(Cl)c1", "note": "[GW4064]", "values": [
      {"measurement": "bacterial overgrowth", "setting": "[4]", "result": "decreased"},
      {"measurement": "mucosal barrier", "setting": "[4]", "result": "improved"},
      {"measurement": "translocation of bacteria to mesenteric lymph nodes", "setting": "[4]", "result": "decreased"},
      {"measurement": "serum glucose", "setting": "[5]; [6]", "result": "decreased"},
      {"measurement": "serum insulin", "setting": "[5]; [6]", "result": "decreased"},
      {"measurement": "serum triglyceride", "setting": "[5]; [6]", "result": "decreased"},
      {"measurement": "glucose tolerance", "setting": "[5]; 100 mg/kg twice a day orally, GTT, 100 mg/kg", "result": "corrected glucose intolerance; also recorded: improve"},
      {"measurement": "high-fat diet induced body weight gain", "setting": "[5]; 100 mg/kg twice a day orally", "result": "reduced"},
      {"measurement": "liver triglyceride content", "setting": "[5]; 100 mg/kg twice a day orally", "result": "reduced"},
      {"measurement": "body fat mass", "setting": "[5]", "result": "decrease"},
      {"measurement": "body weight", "setting": "[5]", "result": "decrease"},
      {"measurement": "serum total cholesterol", "setting": "[5]", "result": "decrease"},
      {"measurement": "NEFA", "setting": "db/db mice", "result": "decreased"},
      {"measurement": "total cholesterol", "setting": "db/db mice", "result": "decreased"},
      {"measurement": "triglyceride", "setting": "db/db mice", "result": "decreased"}
    ]}
  ]
}
